Data taken from PubChem BioAssay AID1963836 (Molecular Pharmacology Branch, DTP, NCI, 2024).

Tested on: 857933-349-R-J2-PDC complex spheroid viability
Assay: Anticancer human tumor 857933-349-R-J2-PDC patient-derived colon adenocarcinoma cell line growth inhibition [POLQ]
Settings: for IC50: curve of first compound; for viability, T/C: stronger effect = lower value
How it was run: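 Three-cell-type spheroids modelling solid tumor plus stroma served as the readout system; POL inhibitors were tested individually and in combination, concentration ranges set by clinical Cmax where known.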

[1] = second compound 0.0316 µM, first compound 0.0316 µM
[2] = second compound 0.0316 µM, first compound 0.1 µM
[3] = second compound 0.0316 µM, first compound 0.316 µM
[4] = second compound 0.0316 µM, first compound 1 µM
[5] = second compound 0.0316 µM, first compound 3.16 µM
[6] = second compound 0.0316 µM, first compound 10 µM
[7] = second compound 0.1 µM, first compound 0.0316 µM
[8] = second compound 0.1 µM, first compound 0.1 µM
[9] = second compound 0.1 µM, first compound 0.316 µM
[10] = second compound 0.1 µM, first compound 1 µM
[11] = second compound 0.1 µM, first compound 3.16 µM
[12] = second compound 0.1 µM, first compound 10 µM
[13] = second compound 0.316 µM, first compound 0.0316 µM
[14] = second compound 0.316 µM, first compound 0.1 µM
[15] = second compound 0.316 µM, first compound 0.316 µM
[16] = second compound 0.316 µM, first compound 1 µM
[17] = second compound 0.316 µM, first compound 3.16 µM
[18] = second compound 0.316 µM, first compound 10 µM
[19] = second compound 1 µM, first compound 0.0316 µM
[20] = second compound 1 µM, first compound 0.1 µM
[21] = second compound 1 µM, first compound 0.316 µM
[22] = second compound 1 µM, first compound 1 µM
[23] = second compound 1 µM, first compound 3.16 µM
[24] = second compound 1 µM, first compound 10 µM
[25] = second compound 3.16 µM, first compound 0.0316 µM
[26] = second compound 3.16 µM, first compound 0.1 µM
[27] = second compound 3.16 µM, first compound 0.316 µM
[28] = second compound 3.16 µM, first compound 1 µM
[29] = second compound 3.16 µM, first compound 3.16 µM
[30] = second compound 3.16 µM, first compound 10 µM
[31] = second compound 10 µM, first compound 0.0316 µM
[32] = second compound 10 µM, first compound 0.1 µM
[33] = second compound 10 µM, first compound 0.316 µM
[34] = second compound 10 µM, first compound 1 µM
[35] = second compound 10 µM, first compound 3.16 µM
[36] = second compound 10 µM, first compound 10 µM
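Also: spheroids exposed to compounds for seven days before readout.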

Nc1ccn(C2OC(CO)C(O)C2(F)F)c(=O)n1 (stereo unspecified) + Nc1ccc(C#CCN(C(=O)Cc2ncc(C(F)(F)F)cc2C(F)(F)F)c2ccc(F)cc2)nn1
IC50 (second compound 0.0316 µM): 87 nM
IC50 (second compound 0.1 µM): 114 nM
IC50 (second compound 0.316 µM): 125 nM
IC50 (second compound 1 µM): 121 nM
IC50 (second compound 3.16 µM): 109 nM
IC50 (second compound 10 µM): 115 nM
viability, T/C [1]: 74.7%
viability, T/C [2]: 46.7%
viability, T/C [3]: 14.3%
viability, T/C [4]: 9.47%
viability, T/C [5]: 6.73%
viability, T/C [6]: 6.61%
viability, T/C [7]: 65.3%
viability, T/C [8]: 54.7%
viability, T/C [9]: 14.5%
viability, T/C [10]: 8.76%
viability, T/C [11]: 7.02%
viability, T/C [12]: 6.34%
viability, T/C [13]: 71.5%
viability, T/C [14]: 59.6%
viability, T/C [15]: 9.98%
viability, T/C [16]: 9.36%
viability, T/C [17]: 5.55%
viability, T/C [18]: 7.25%
viability, T/C [19]: 81%
viability, T/C [20]: 57.6%
viability, T/C [21]: 12%
viability, T/C [22]: 11.3%
viability, T/C [23]: 9.17%
viability, T/C [24]: 6.73%
viability, T/C [25]: 69.6%
viability, T/C [26]: 52.8%
viability, T/C [27]: 17.3%
viability, T/C [28]: 9.05%
viability, T/C [29]: 6.17%
viability, T/C [30]: 7.31%
viability, T/C [31]: 66.3%
viability, T/C [32]: 54.9%
viability, T/C [33]: 15%
viability, T/C [34]: 11.1%
viability, T/C [35]: 12.4%
viability, T/C [36]: 10.2%

CC1COCCN1c1cc(C2(O)CC3CCC(C2)O3)c2cnn(-c3ccn[nH]3)c2n1 (stereo unspecified) + Cc1cccc(N(C)C(=O)C2C(O)CCN2c2nc(C)cc(C(F)(F)F)c2C#N)c1
IC50 (second compound 0.0316 µM): 247 nM
IC50 (second compound 0.1 µM): 365 nM
IC50 (second compound 0.316 µM): 291 nM
IC50 (second compound 1 µM): 202 nM
IC50 (second compound 3.16 µM): 268 nM
IC50 (second compound 10 µM): 231 nM
viability, T/C [1]: 73.2%
viability, T/C [2]: 56.1%
viability, T/C [3]: 50.3%
viability, T/C [4]: 41.7%
viability, T/C [5]: 42.7%
viability, T/C [6]: 43.6%
viability, T/C [7]: 60.5%
viability, T/C [8]: 62.9%
viability, T/C [9]: 50.1%
viability, T/C [10]: 38.3%
viability, T/C [11]: 50.1%
viability, T/C [12]: 59.1%
viability, T/C [13]: 76.4%
viability, T/C [14]: 69.9%
viability, T/C [15]: 48.4%
viability, T/C [16]: 45.9%
viability, T/C [17]: 41.3%
viability, T/C [18]: 48.7%
viability, T/C [19]: 67.1%
viability, T/C [20]: 59.5%
viability, T/C [21]: 38.4%
viability, T/C [22]: 43.4%
viability, T/C [23]: 46.6%
viability, T/C [24]: 47.5%
viability, T/C [25]: 60.5%
viability, T/C [26]: 62.5%
viability, T/C [27]: 47.6%
viability, T/C [28]: 41.1%
viability, T/C [29]: 54.4%
viability, T/C [30]: 49.3%
viability, T/C [31]: 56.3%
viability, T/C [32]: 55.9%
viability, T/C [33]: 50.5%
viability, T/C [34]: 36.9%
viability, T/C [35]: 51.7%
viability, T/C [36]: 40.1%

CCc1cc2c(N3CCc4c(cc(Cn5ccnc5)cc4-c4cn(C)nc4C(F)(F)F)C3=O)ccnc2c(OC)n1 + COC1C(OC(N)=O)C(O)C(Oc2ccc3c(O)c(NC(=O)c4ccc(O)c(CC=C(C)C)c4)c(=O)oc3c2C)OC1(C)C
IC50 (second compound 0.0316 µM): > 10000 nM
IC50 (second compound 0.1 µM): 7520 nM
IC50 (second compound 0.316 µM): > 10000 nM
IC50 (second compound 1 µM): > 10000 nM
IC50 (second compound 3.16 µM): > 10000 nM
IC50 (second compound 10 µM): > 10000 nM
viability, T/C [1]: 88.9%
viability, T/C [2]: 93.4%
viability, T/C [3]: 106%
viability, T/C [4]: 75.6%
viability, T/C [5]: 66%
viability, T/C [6]: 51.8%
viability, T/C [7]: 103%
viability, T/C [8]: 93.1%
viability, T/C [9]: 80.2%
viability, T/C [10]: 84.2%
viability, T/C [11]: 61%
viability, T/C [12]: 44.6%
viability, T/C [13]: 90.4%
viability, T/C [14]: 104%
viability, T/C [15]: 73.4%
viability, T/C [16]: 71.5%
viability, T/C [17]: 65.4%
viability, T/C [18]: 58.4%
viability, T/C [19]: 90%
viability, T/C [20]: 79%
viability, T/C [21]: 74.9%
viability, T/C [22]: 69.8%
viability, T/C [23]: 61.3%
viability, T/C [24]: 59.5%
viability, T/C [25]: 96.3%
viability, T/C [26]: 98.2%
viability, T/C [27]: 82.7%
viability, T/C [28]: 73.6%
viability, T/C [29]: 75.3%
viability, T/C [30]: 58.2%
viability, T/C [31]: 99.6%
viability, T/C [32]: 94.5%
viability, T/C [33]: 75.6%
viability, T/C [34]: 92.3%
viability, T/C [35]: 59.7%
viability, T/C [36]: 62.8%
